Test results taken from patent US20100016435A1, “HYBRID MOLECULES HAVING MIXED VITAMIN D RECEPTOR AGONISM AND HISTONE DEACETYLASE INHIBITORY PROPERTIES” (McGill University, priority 2006, published 2010).

Legend:
human VDR = molecular target: T1, human VDR (Homo sapiens, UniProt P11473); assay: Reporter gene assay (VDRE-luciferase) in transiently transfected COS7 cells; format: cell-based
T1 construct: expressed in transfected cells; host or cells: COS7
T1 sequence (P11473 1-427): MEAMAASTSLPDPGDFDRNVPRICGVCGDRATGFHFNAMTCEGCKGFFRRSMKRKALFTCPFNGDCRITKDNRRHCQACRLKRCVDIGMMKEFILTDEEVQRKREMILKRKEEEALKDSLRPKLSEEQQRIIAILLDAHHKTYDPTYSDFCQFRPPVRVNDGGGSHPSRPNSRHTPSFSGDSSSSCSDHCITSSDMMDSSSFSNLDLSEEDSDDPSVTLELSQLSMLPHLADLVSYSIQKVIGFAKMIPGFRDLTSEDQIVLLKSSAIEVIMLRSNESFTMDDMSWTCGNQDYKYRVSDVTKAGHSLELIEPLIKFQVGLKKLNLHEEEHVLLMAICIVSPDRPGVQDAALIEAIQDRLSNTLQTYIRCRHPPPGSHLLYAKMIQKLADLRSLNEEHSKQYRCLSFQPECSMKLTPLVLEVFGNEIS
Experimental: FIG. 2 is an illustration of the vitamin D receptor agonist activity of 6 using a reporter gene assay in transiently transfected COS7 cells.
Hybrid molecule 6 was tested for calcitriol agonist activity using a reporter gene assay under standard conditions.^25,26 COS7 cells were transiently co-transfected with a plasmid expression vector for the human VDR, a plasmid vector expressing bacterial β-galactosidase from a constitutively active promoter (as an internal control for transfection efficiency), and a vector containing a luciferase reporter gene, under control of a previously described synthetic promoter composed of three high affinity VDREs (Vitamin D Response Elements) placed immediately upstream of a truncated promoter region from the herpes simplex virus thymidine kinase gene.^25 Cells were left overnight in the presence of DNA and transfection reagent (lipofectamine). The media were changed and cells were incubated in fresh media containing either vehicle (DMSO), 1 (100 nM), 3 (15 nM), 1 and 3 combined (100 nM/15 nM) or 6 (100 nM), and incubated a further 36 h.

SCC4 cells [1] = assay: Protein acetylation in nuclear and cytoplasmic extracts, Western blot with anti-acetyllysine antibody; format: cell-based, human; conditions: 6 h
Excerpt: (§1) FIG. 4 is an illustration of the HDAC inhibitory activity of 3 in the SCC4 cell line. FIG. 4A is an illustration of a western blot of nuclear and cytoplasmic extracts of SCC4 cells treated with vehicle (−), 1, or 3 alone or in combination, as indicated. The 55 kDa band corresponds to the molecular weight of tubulin. FIG. 4B illustrates a western blot probed with an antibody directed against acetylated histone H4 (AcH4) showing the effects of the treatments described in A on acetylation of histone H4. FIG. 4C illustrates western blots of the effects of treatments described in A on levels of total alpha-tubulin (left) and acetylated alpha-tubulin (right).
(§2) In preliminary experiments, TSA-inducible protein acetylation was analyzed in nuclear and cytoplasmic extracts of SCC4 cells treated for 6 h with 1, 3, or 1 and 3 and subsequently probed by Western blotting for protein acetylation using an anti-acetyllysine antibody. […] Effects of 3 on histone acetylation specifically, were confirmed by probing for acetylation of histone H4 (FIG. 4B). […] However, it was not clear whether this corresponded to enhanced expression or acetylation. […] This was confirmed by probing cytoplasmic fractions with an antibody that recognized α-tubulin (FIG. 4C). Calcitriol (1) had no effect on the acetylation of α-tubulin, and none of the treatments had any substantial effect on total α-tubulin expression (FIG. 4C).

histone H4 = assay: Histone H4 acetylation, Western blot; format: cell-based, human; conditions: SCC4 cells, 6 h
Excerpt: as §1, §2

α-tubulin = assay: α-Tubulin acetylation in SCC4 cells, Western blot; format: cell-based, human; conditions: 3 15 nM; 36 or 39 10^−6 or 10^−7M; 6 h or 24 h, FIG. 6C
Excerpt: as §1
FIG. 6 is a comparison of the HDAC inhibitory activities of 1, 3, 6, 36 or 39 as assessed by their effects on acetylation of alpha-tubulin. In A, SCC4 cells were incubated with vehicle or compound 1 (10^−6M), 3 (15 nM), 6 (10^−6M) and 36 (10^−6M), as indicated for 6 h and protein extracts were probed for total α-tubulin (Tub.) or acetylated α-tubulin (AcTub.) by Western blotting. Blots for acetylated alpha-tubulin and total alpha-tubulin are shown. In B, SCC4 cells were incubated with vehicle or compound 3 (15 nM), 6 (10^−6M) or 36 (10^−6M) as indicated for 6 h or 24 h and protein extracts were probed for acetylated α-tubulin (AcTub.) by Western blotting. In C, SCC4 cells were incubated with vehicle or compounds 3 (15 nM), 36 (10^−6 or 10^−7M) or 39 (10^−6 or 10^−7M) as indicated for 6 h or 24 h and protein extracts were probed for total α-tubulin (tub.) or acetylated α-tubulin (AcTub.) by Western blotting.
as §2
SCC4 cells were incubated with vehicle or compound as indicated for 6 h and cytoplasmic protein extracts were probed by Western blotting using a specific antibody for acetylated α-tubulin.

SCC25 cells = assay: Antiproliferative activity in SCC25 cells; format: cell-based; conditions: 1 at 1 nM or 100 nM; 3 15 nM; combination 3 with 100 nM 1; FIG. 7B
Excerpt: FIG. 7 is an illustration of the antiproliferative activities of 1 and 3, individually or in combination, in SCC4 cells (A) or in SCC25 cells (B) at the concentrations indicated.

SCC4 cells [2] = assay: Acidic β-galactosidase activity (marker of autophagy), X-Gal staining and 620 nm measurement; format: cell-based, human; conditions: qualitative, FIG. 10A
Excerpt: FIG. 10 is an illustration of the effects of 1, 3, 1+3 and 6 on the induction of acidic β-galactosidase activity, a marker of autophagy (A); FIG. 10 is an illustration of the effects 1, 3, 1+3 and 6 on the levels of β-galactosidase expression as obtained by measuring the indigo cleavage product of X-Gal at 620 nm (B).
Since it was observed that treatment with 1 could enhance cell death by autophagy (ref. 26), the effects of different treatments on the induction of acidic β-galactosidase activity, a marker of autophagy (FIG. 10A) was tested.

SCC4 cells [3] = assay: Immunocytochemical and morphological analysis (mitotic catastrophe); format: cell-based, human
Excerpt: FIG. 12 is an illustration of the immunocytochemical analysis of the effects of 1, 3, or 1 and 3 combined on SCC4 cells (A). […] Both phenotypes are characteristics of mitotic catastrophe. The lower panels (B) show cytoplasmic bridges between SCC4 cells treated with 1 and 3, consistent with the formation of the tubulin bridges seen above in A.
Assembly into microtubules is regulated by acetylation. […] Previous studies have shown that microtubule stabilizing agents can induce mitotic catastrophe (ref. 30). […] The formation of intercellular microtubular structures was consistent with observations in the light microscope of numerous intercellular bridges in cells treated with both 1 and 3 (FIG. 12B, arrows), but not in other treatment groups (not shown).

HDAC6 = HDAC6 (Homo sapiens, UniProt Q9UBN7); conditions: cited from earlier work
Sequence of HDAC6 (Q9UBN7 whole entry, species assumed): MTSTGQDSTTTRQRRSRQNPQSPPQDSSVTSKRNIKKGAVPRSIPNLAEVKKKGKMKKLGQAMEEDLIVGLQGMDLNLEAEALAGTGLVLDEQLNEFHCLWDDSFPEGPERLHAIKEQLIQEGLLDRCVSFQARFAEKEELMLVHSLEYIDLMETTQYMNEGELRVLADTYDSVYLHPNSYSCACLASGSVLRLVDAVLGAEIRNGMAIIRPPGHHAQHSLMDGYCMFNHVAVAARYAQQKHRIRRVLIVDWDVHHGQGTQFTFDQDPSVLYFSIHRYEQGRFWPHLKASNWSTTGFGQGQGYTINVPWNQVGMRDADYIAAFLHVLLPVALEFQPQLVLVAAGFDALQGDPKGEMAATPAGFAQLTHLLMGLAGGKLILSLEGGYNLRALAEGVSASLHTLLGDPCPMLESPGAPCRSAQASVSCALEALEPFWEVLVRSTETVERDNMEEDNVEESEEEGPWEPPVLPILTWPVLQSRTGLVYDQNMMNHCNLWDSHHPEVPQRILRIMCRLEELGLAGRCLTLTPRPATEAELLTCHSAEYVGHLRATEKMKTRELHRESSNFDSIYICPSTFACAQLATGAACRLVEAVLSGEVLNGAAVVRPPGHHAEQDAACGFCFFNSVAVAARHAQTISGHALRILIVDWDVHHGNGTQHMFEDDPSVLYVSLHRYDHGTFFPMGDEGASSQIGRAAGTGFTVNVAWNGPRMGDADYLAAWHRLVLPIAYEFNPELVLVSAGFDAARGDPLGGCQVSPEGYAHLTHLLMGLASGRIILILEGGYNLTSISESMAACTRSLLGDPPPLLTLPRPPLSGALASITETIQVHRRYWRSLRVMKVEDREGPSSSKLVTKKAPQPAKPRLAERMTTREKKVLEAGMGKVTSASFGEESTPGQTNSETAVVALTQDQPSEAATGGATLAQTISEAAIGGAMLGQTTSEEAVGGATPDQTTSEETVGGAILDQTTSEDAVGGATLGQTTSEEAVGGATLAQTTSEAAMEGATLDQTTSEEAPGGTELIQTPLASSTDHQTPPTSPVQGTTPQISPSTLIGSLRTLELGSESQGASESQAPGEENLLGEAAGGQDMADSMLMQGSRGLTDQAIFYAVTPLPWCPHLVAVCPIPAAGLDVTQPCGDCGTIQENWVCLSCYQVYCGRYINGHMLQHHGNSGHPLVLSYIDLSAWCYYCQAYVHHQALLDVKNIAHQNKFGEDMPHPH

SCC4 cells [4] = assay: Antiproliferative activity in SCC4 cells; conditions: 3 alone, data not shown

In the case of `CC(/C=C/C(=O)NO)=C\[C@@H](C)C(=O)c1ccc(N(C)C)cc1` [compound 3, trichostatin A], the “reporter gene activity (calcitriol agonist activity)” value (human VDR; COS7, 36 h, 1 100 nM, 3 15 nM, 6 100 nM, not normalized) is reported as “no substantial effect”, the “expression from the internal control plasmid (β-galactosidase)” value (human VDR; COS7 cells) is reported as “modestly affects expression” and the “acetylation of a 55 kDa protein, likely tubulin” value (SCC4 cells [1]; cytoplasmic extracts) is reported as “markedly enhanced”. The “acetylation of low molecular weight nuclear proteins” value (SCC4 cells [1]; nuclear extracts) was “markedly enhanced”, the “histone H4 acetylation” value (histone H4) was “markedly enhanced” and the “levels of acetylated alpha-tubulin normalized for total alpha-tubulin” value (α-tubulin) was “Elevated levels”. For the same molecule, the “SCC25 proliferation / sensitivity” value (SCC25 cells) was “substantially less sensitive”, the “acidic β-galactosidase staining (X-Gal, pH 4.0), cytochemical” value (SCC4 cells [2]) was “weak or relatively modest effects” and the cell morphology (SCC4 cells [3]; FIG. 12) was “did not differ from control cells”. The “induction of mitotic catastrophe” value (SCC4 cells [3]; SCC4 cells) was “not 1 or 3 alone”, the HDAC6 activity (HDAC6) was “can be blocked” and the SCC4 proliferation (SCC4 cells [4]; 50 nM) was “completely inhibited”. The cell death (SCC4 cells [4]; concentrations higher than 50 nM) was “substantial cell death”.
